Assay results from patent publication US9221900B2, “Methods for identifying safe and functional humanized antibodies” (AC IMMUNE S.A., priority 2010, dated 2015).
“Also recorded” adds a separate entry of the source.

Columns and labels:
[1] = system: human Fcγ receptors (FcγRIa, FcγRIIa, FcγRIIb, FcγRIIIa); test: FcγR binding ELISA, panel of human Fcγ receptors; conditions: cross-linked antibody
Protocol: FIG. 10 provides graphs and immunocytochemical images corresponding to the experiments described in Example 6.5. […] These findings are consistent with published data for human IgG4 antibodies (Gessner et al., 1998) and IgG1 antibodies carrying the D265A mutation (Shields et al., 2001).
(§1) The binding of test antibodies to a panel of human Fcγ receptors (FcγRs) was measured using enzyme-linked immunosorbent assay (ELISA). Human FcγRs (Genentech, Inc., CA) are fusion proteins containing the extracellular domain of the receptor γ-chain with a Gly/6xHis/glutathione S transferase (GST) polypeptide tag at the C terminus. A monoclonal antibody with human IgG1 framework was used as the positive control (IgG1 control) in this experiment. Plates were coated with a mouse monoclonal anti GST antibody (Genentech, Inc.) in a 0.05 M sodium carbonate buffer (pH 9.6) overnight at 4° C. After blocking with an assay buffer containing phosphate buffered saline (PBS), 0.5% BSA, and 0.05% Tween-20, the plates were incubated with FcγRs at room temperature for 1 h. Human FcγRs were immobilized to the plate via interaction with the anti-GST coating. […] Diluted samples were applied as monomeric forms for the high affinity receptor (FcγRIa), or multimeric forms for the low affinity receptors (FcγRIIa, FcγRIIb, and FcγRIIIa). The multimeric forms of test antibodies were generated by cross linking F(ab′)2 fragment of goat anti human κ-chain (MP Biomedicals, Solon, Ohio), with test monoclonal antibody at an approximate molar ratio of 3:1. The plates were incubated with FcγRs at room temperature for 2 h. […] The antibodies bound to the FcγRs were detected with horseradish peroxidase (HRP)-conjugated F(ab′)2 fragment of goat anti human F(ab′)2 (Jackson ImmunoResearch Laboratories; West Grove, Pa.). […] The reaction was terminated with 1 M H3PO4, and absorbance at 450 nm with reference at 650 nm was measured on a plate reader (Molecular Devices, Sunnyvale, Calif.). Binding curves were generated by plotting the mean absorbance values from duplicates of sample dilutions against the respective sample […].

[2] = biological target: T1, FcγRIIIa-V158 (Homo sapiens, UniProt P08637, F176V); test: FcγR binding ELISA, FcγRIIIa-V158; conditions: cross-linked IgG mAb
T1 construct: fusion proteins containing the extracellular domain of the receptor γ-chain
T1 sequence (P08637 17-208 F176V): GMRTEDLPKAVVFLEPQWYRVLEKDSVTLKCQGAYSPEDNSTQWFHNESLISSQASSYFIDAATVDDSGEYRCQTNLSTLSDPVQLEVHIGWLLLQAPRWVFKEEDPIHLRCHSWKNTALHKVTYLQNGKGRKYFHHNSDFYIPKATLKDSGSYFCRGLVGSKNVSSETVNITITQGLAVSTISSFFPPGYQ
Protocol: The ability of these different monoclonal antibody backbones to internalize Aβ1-42 oligomers into microglia was then compared using confocal imaging on Aβ1-42 oligomer treated primary cortical microglia. […] To verify that microglia are indeed the cells taking up Aβ1-42 complexed to monoclonal antibodies, the study was repeated using HiLyte Fluor-488 tagged Aβ1-42 and co-stained for the microglial marker Iba1.
as §1, with “FcγRIIIa).” for “FcγRIIIa). The multimeric forms of test antibodies were generated by cross linking F(ab′)2 fragment of goat anti human κ-chain (MP Biomedicals, Solon, Ohio), with test monoclonal antibody at an approximate molar ratio of 3:1. The plates were incubated with FcγRs at room temperature for 2 h.”

[3] = system: mixed cortical cells from P1 rats; test: Aβ1-42 oligomer cytotoxicity assay, MTT readout; format: cell-based, rat; conditions: for reversal of Aβ1-42 oligomer-mediated toxicity: mixed primary cortical cultures, different IgG backbones
Protocol: FIG. 2 provides graphs and immunocytochemical images corresponding to the experiments described in Example 6.3. […] An MTT assay was used to determine cell viability as described in the Methods section. The means (±SEM) of five independent experiments are shown. *P<0.05, **P<0.01. […] Neurotoxicity following extended Aβ1-42 oligomer treatment was tested by morphological analyses (C).
A non-specific IgG monoclonal antibody was used as a control in all experiments.
Rat primary cortical cultures were prepared from Sprague-Dawley rats (Charles River Laboratories L'Arbresle, France) at post-natal day 1, as described by Meberg and Miller (Meberg and Miller, 2003). Cerebellum and meninges were removed, and cortices were cut into small pieces and dissociated with enzymatic disruption at 37° C. in dissociation buffer (papaine, CaCl2, EDTA, and HEPES; all from Invitrogen, Carlsbad, Calif.). DNase (Invitrogen) was added for 10 min. Following dissociation, dispersed cortical neurons were plated onto poly-L-lysine (0.01%; mol. wt 150,000-300,000; Sigma) coated 6-well, 24-well, or 96-well tissue culture plates. For immunocytochemistry, cells were grown on coated glass coverslips, into 24-well plates. Cells were maintained in Neurobasal media (Invitrogen) without phenol-red, with the addition of L-glutamine (2 mM; Sigma), B27 supplement (Invitrogen), and penicillin/streptomycin (Sigma) in a humidified incubator at 37° C. and 5% CO2. Following 1 h and 30 min in culture, the media was replaced with astrocyte-conditioned medium. After a further 4 days in culture, cell proliferation was blocked by treatment with cytosine arabinoside (Ara-C) at 2.5 μM (Invitrogen). Under these culture conditions, 20% of cells were identified as neurons by NeuN/DAPI staining (not shown). Experiments using mixed cortical cultures were generally performed at days-in-vitro (“DIV”) 6 unless stated otherwise. Enriched microglia prepared from cortex and hippocampus were harvested as described for cortical cultures above. Cortex and hippocampus were put in DMEM containing high glucose and homogenized by pipetting with a 10 mL pipette and then with a syringe. The homogenate was centrifuged for 3 min at 1,000×g, and then resuspended in pre-warmed DMEM containing high glucose containing 10% FCS and penicillin/streptomycin (microglia media). The cell suspension was next transferred to a T75 tissue-culture flask and kept in a humidified incubator at 37° C. and 5% CO2 for 1 week. The flask was shaken to separate microglia from adherent cells, and collected and washed in DMEM. The resulting cells were resuspended in 1 mL microglia media, counted, and plated at 5×10^4 cells/well. To verify microglial enrichment, cells were stained with the astroglial and microglial markers GFAP and Iba1, respectively. Greater than 60% of cells stained positive for Iba1, with no cells staining for both GFAP and Iba1. Pure microglia were prepared from post-natal day 3 CX3CR1-GFP mice (Jackson Laboratories). Cortex and hippocampus were dissected and triturated in DMEM containing high glucose using a 10 mL pipette, and then with an 18 gauge needle. The homogenate was centrifuged for 3 min at 1,000 g, and then resuspended in pre-warmed DMEM containing high glucose, 10% FBS and penicillin/streptomycin (microglia media). The cell suspension was next transferred to a T75 tissue-culture flask and kept in a humidified incubator at 37° C. and 5% CO2 for 7-10 d. Microglia were isolated by shaking, collected and washed in DMEM. The resulting cells were resuspended in 1 mL microglia media, counted, and plated on tissue culture treated glass chamber slides at 5×10^4 cells/well for use in experiments.
The cytotoxicity of Aβ1-42 oligomers was tested on mixed cortical cultures at DIV 5. All antibodies, at a final concentration of 100 μg/mL, were co-incubated with Aβ1-42 oligomers for 30 min in serum-free cell culture medium at 37° C. before treatment of cells. […]

[4] = system: microglia; test: Confocal imaging of microglial uptake of Aβ1-42 oligomers; format: cell-based, rat; conditions: for Aβ1-42 oligomer internalization into microglia, rank order: primary cortical microglia
Protocol: Aβ1-42 oligomers are shown in red, and blue is DAPI staining of DNA to show the microglia itself (A). An apical-to-distal slice was obtained from a three-dimensional image rendered from Z-stacks. Confocal imaging was performed on mixed cortical cells labeled for Aβ (red) and stained with DAPI (blue) as described in the Example Section under Materials and Methods. Microglia were identified and scanned for the maximum fluorescence intensity through a series of confocal stacks representing intracellular locations (B), and the total area of fluorescent signal above a minimum threshold was quantified (C). Each mark on the graph represents the total area of Aβ stained within a single cell. A minimum of 20 cells were analyzed for each treatment condition. Data were compared using one-way ANOVA followed by Tukey post-hoc multiple comparison. Means (±SEM) are shown. […] Red is Iba1 staining, green is HyLite Fluor-488-labeled Aβ1 42, and blue is DAPI staining. […] Statistical analysis was done using one-way ANOVA followed by Tukey post-hoc multiple comparison.
Cells were grown on a glass coverslips. Following treatment, cells were quickly washed with PBS and then fixed with 4% paraformaldehyde for 20 min. After thorough washes, cells were immersed in 100% methanol for 10 min at −20° C. They were then washed again and incubated in a blocking solution, PBS containing 10% normal goat serum for 1 h at room temperature. After an overnight incubation with the primary antibody, cells were washed and incubated for 2 h with the secondary antibody, then washed and mounted on glass slides using ProLong Gold antifade reagent (Invitrogen). Epifluorescence and confocal images were acquired on a LSM 700 inverted microscope from Zeiss, using a 63× lens. Fluorescence intensity was measured in cell bodies delineated by saturated epifluorescence pictures. Z-stacks were rendered into a three-dimensional image using ImageJ 1.42 (National Institutes of Health, freeware) from which an apical to distal slice containing the labeled proteins was obtained. Cells treated with HyLite Fluor-488-tagged Aβ1-42 were treated in the same way except no primary or secondary antibodies were used to label for Aβ1-42.

MABT-IgG1: same antigen binding sequences as MABT on human IgG1 wild-type backbone with full FcγR-binding capacity
binding to FcγRs [1]: bound to all FcRγ receptors with activities similar to the positive non-Aβ-binding IgG1 control
binding to FcγRIIIa-V158, hierarchy [2]: MABT-IgG>MABT>MABT-IgG1-D265A
reversal of Aβ1-42 oligomer-mediated toxicity [3]: full reversal of Aβ1-42 oligomer-mediated toxicity; also recorded: trended towards a smaller protective effect when compared to MABT
microglial morphology and Iba1 staining ([4]; Aβ1-42 in combination with antibody): more condensed nuclei and brighter Iba1 staining
Aβ1-42 oligomer internalization into microglia, rank order [4]: MABT-IgG1>MABT>MABT-IgG1-D265A

MABT: humanized anti-Aβ monoclonal antibody of IgG4 isotype, affinity matured and humanized form of mouse mMABT
binding to FcγRs [1]: substantially reduced binding to all the FcγRs
binding to FcγRIIIa-V158, hierarchy [2]: MABT-IgG>MABT>MABT-IgG1-D265A
antibody-mediated increase in MTT signal under p38MAPK inhibition ([3]; 10 μM Aβ1-42 oligomers, 100 μg/ml antibody, 1 μM SB239063, 24 h): reduced to that of MABT-IgG1-D265A
rescue from Aβ1-42 oligomer toxicity (MTT) ([3]; Aβ1-42 oligomer up to 5 μM, 24 h, MABT to oligomer molar ratio 1:7.5): complete rescue from toxicity
reversal of Aβ1-42 oligomer-mediated toxicity [3]: full reversal of Aβ1-42 oligomer-mediated toxicity
uptake of Aβ1-42 oligomers into microglia ([4]; mixed neuronal cultures, apparent from 30 minutes): mediated rapid uptake of Aβ1-42 oligomers into cellular profiles likely to be microglia
Aβ1-42 oligomer internalization into microglia, rank order [4]: MABT-IgG1>MABT>MABT-IgG1-D265A
